Data set [1] has as its target HBV core protein (C-terminal truncated core protein containing 149 amino acids of the N-terminal assembly domain) (UniProt P03146). Kind of data set: Biochemical capsid assembly assay (fluorescence quenching). Further details: rows headed: Assembly Activity; other: BODIPY-FL labelled core protein, assembly started with NaCl, read after 6 min. Particulars: read-out: Assembly Activity; BODIPY-FL labelled core protein, assembly started with NaCl, read after 6 min. An outline of the steps: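 N-terminal assembly domain (residues 1–149) plus C-terminal Cys150, E. coli-expressed, BODIPY-FL-maleimide labelled, used at 1.0–2.0 μM in 50 mM HEPES pH 7.5 with 0.5% DMSO. Assembly started with NaCl ([…]); fluorescence quenching (ex 477/em 525 nm) read after 6 min. 8-point compound series; EC50 by non-linear regression.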

The next data set concerns HepAD38 cells. Kind of data set: Cell viability assay (AlamarBlue). The note with it: 0.3 μg/ml tetracycline, six days incubation, AlamarBlue.
Another data set has as its system HBV. Kind of data set: Determination of HBV DNA from the supernatants of HepAD38 cells (anti-HBV activity). Format: cell-based, hepatitis B virus. Particulars: HBV DNA in HepAD38 supernatant, day 6, qPCR, read-out: Cell Activity. The procedure, abridged:
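HepAD38 cells (60,000/well) seeded in tetracycline-free medium to induce HBV, treated with half-log serial compound dilutions for 6 days at 37 °C. HBV DNA purified from filtered supernatant and quantified by real-time PCR against HBV plasmid standards; EC50 from relative copy numbers by non-linear regression.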
For orientation: In qPCR the cycle at which signal appears reflects the starting amount.

Data set [2] is described as follows: Cell viability assay (AlamarBlue). The note with it: human, HepAD38 cells.
[3] abbreviates: Hepatitis B virus, HePAD38, 144 h.

The text below walks through data of patent US20220363686A1 (AiCuris GmbH & Co. KG, priority 2018, published 2022).

SMILES strings stand for the structures. pEC50, pIC50: −log10 of the molar value. Read-outs that look alike come from different tables or passages of the source.

HBV core protein (C-terminal truncated core protein containing 149 amino acids of the N-terminal assembly domain), sequence (P03146 whole entry, the tested form may be a part): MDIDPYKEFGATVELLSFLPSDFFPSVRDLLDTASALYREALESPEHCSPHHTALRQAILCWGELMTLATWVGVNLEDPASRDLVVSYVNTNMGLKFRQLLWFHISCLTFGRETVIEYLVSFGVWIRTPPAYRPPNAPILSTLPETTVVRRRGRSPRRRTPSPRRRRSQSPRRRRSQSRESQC

The term CC50 denotes the concentration at which the toxic effect on the cells reaches its halfway point. Read a high CC50 as better tolerance by the cells. Consider `CC1Cn2ncc(C(=O)N(C)C3CC3)c2CN1C(=O)c1cc2ccccc2[nH]1` (single isomer, unassigned) [Example 71, N-cyclopropyl-5-(1H-indole-2-carbonyl)-N,6-dimethyl-4H,5H,6H,7H-pyrazolo[1,5-a]pyrazine-3-carboxamide], for which the pIC50 in data set [1] is above 5.30. The compound also returned a CC50 in the data set with HepAD38 cells above 10 µM. Moreover, in the data set on HBV, the pEC50 was above 6.00.
In the case of `COCC1(N(C)C(=O)c2cnn3c2CN(C(=O)c2cc4ccccc4[nH]2)C(C)C3)CC1` (single isomer, unassigned) [Example 70, 5-(1H-indole-2-carbonyl)-N-[1-(methoxymethyl)cyclopropyl]-N,6-dimethyl-4H,5H,6H,7H-pyrazolo[1,5-a]pyrazine-3-carboxamide], in data set [1], the pIC50 was above 5.30. In addition, the CC50 in the data set on HepAD38 cells was above 10 µM. Further, the pEC50 in the data set on HBV is above 6.00.
Taken in the same sequence, the figures for `CC1Cn2ncc(C(=O)NC3(COC(F)F)CC3)c2CN1C(=O)c1cc2ccccc2[nH]1` (single isomer, unassigned) [Example 132, N-{1-[(difluoromethoxy)methyl]cyclopropyl}-5-(1H-indole-2-carbonyl)-6-methyl-4H,5H,6H,7H-pyrazolo[1,5-a]pyrazine-3-carboxamide] were above 5.30, above 10 µM and above 6.00.
Turning to `C[C@@H](NC(=O)c1cnn2c1CN(C(=O)c1cc3ccccc3[nH]1)CC2)C(F)(F)F` [Example 79, 5-(1H-indole-2-carbonyl)-N-[(2R)-1,1,1-trifluoropropan-2-yl]-4H,5H,6H,7H-pyrazolo[1,5-a]pyrazine-3-carboxamide], the pIC50 in data set [1] is above 5.30. In addition, the half-maximal cytotoxic concentration (CC50) at 6 days in data set [2] is above 10 µM. In addition, the pEC50 with HBV (setting [3]) was above 6.00.
Consider `CN(CCO)S(=O)(=O)c1cnn2c1CN(C(=O)c1cc3ccccc3[nH]1)CC2` [Example 31, N-(2-hydroxyethyl)-5-(1H-indole-2-carbonyl)-N-methyl-4H,5H,6H,7H-pyrazolo[1,5-a]pyrazine-3-sulfonamide], for which, in data set [1], the pIC50 was above 5.30. The CC50 at 6 days in data set [2] is above 10 µM. Further, in the data set with HBV (setting [3]), the pEC50 was above 6.00.
